We go through four compounds from paper PMC4978465 (Nature, 2015).

Each structure is given as a SMILES string.

One assay concerns the target T1, BT3775 (Bacteroides thetaiotaomicron, UniProt Q8A191).
T1 sequence (Q8A191 1-224): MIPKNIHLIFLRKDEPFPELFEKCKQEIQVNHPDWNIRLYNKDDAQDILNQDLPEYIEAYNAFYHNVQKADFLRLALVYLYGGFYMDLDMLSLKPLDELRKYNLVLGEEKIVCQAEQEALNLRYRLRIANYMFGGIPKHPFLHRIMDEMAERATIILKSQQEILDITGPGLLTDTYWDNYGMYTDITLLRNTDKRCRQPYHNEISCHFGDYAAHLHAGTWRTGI
Kind of assay: HPAEC, MALDI-TOF, linkage analysis. It is filed as biochemical. Particulars: 10 mM MnCl2, pH 7.5, 37 °C.

A further assay addresses T2, BxGH99 (Bacteroides xylanisolvens, UniProt D6D1V7).
T2 sequence (D6D1V7 13-380): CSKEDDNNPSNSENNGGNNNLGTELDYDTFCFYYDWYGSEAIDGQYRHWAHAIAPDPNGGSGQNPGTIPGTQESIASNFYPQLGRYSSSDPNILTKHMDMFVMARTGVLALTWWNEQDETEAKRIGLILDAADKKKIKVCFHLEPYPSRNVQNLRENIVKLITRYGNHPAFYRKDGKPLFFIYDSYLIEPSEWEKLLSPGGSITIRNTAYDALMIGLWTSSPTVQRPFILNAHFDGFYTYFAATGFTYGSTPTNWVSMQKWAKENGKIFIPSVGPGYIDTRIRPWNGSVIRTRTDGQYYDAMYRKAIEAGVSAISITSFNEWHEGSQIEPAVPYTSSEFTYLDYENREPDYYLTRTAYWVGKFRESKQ
Put plainly: X-ray crystal structure. The format is binding. The settings on record: crystal soak about 10 mM.

As to `Nc1nc2c(ncn2[C@@H]2O[C@H](COP(=O)(O)OP(=O)(O)O[C@H]3O[C@H](CO)[C@@H](O)[C@H](O)[C@@H]3O)[C@@H](O)[C@H]2O)c(=O)[nH]1` [GDP-Mannose], on BT3775 (acceptor mannose), the “HPAEC, MALDI-TOF, linkage analysis” value is “using mannose as an acceptor and GDP-α-Man as the donor”. With `OC[C@H]1O[C@H](O[C@@H]2C(O)O[C@H](CO)[C@@H](O)[C@@H]2O)[C@@H](O)[C@@H](O)[C@@H]1O` (stereo partly drawn) [α-1,2-mannobiose], the X-ray crystal structure entry on BxGH99 (ternary complex with Man-IFG) is “ternary with Man-IFG and α-1,2-mannobiose, was achieved by soaking native BxGH99 crystals”. `OC[C@H]1CNC[C@@H](O[C@H]2O[C@H](CO)[C@@H](O)[C@H](O)[C@@H]2O)[C@@H]1O` [Man-IFG]: the X-ray crystal structure result on BxGH99 (ternary complex with alpha-1,2-mannobiose) is “ternary with Man-IFG and α-1,2-mannobiose, was achieved by soaking native BxGH99 crystals”. As for `OC[C@H]1OC(O)[C@@H](O)[C@@H](O)[C@@H]1O` (stereo partly shown) [mannose], the “HPAEC, MALDI-TOF, linkage analysis” value on BT3775 (donor GDP-mannose) is “mannobiose produced by BT3775 from mannose”.
